# From ChEMBL document CHEMBL1132739, “Pyrrolo[2,3-d]pyrimidines containing an extended 5-substituent as potent and selective inhibitors of lck I” (Bioorg Med Chem Lett, 2000)
# Tests used:
# [1] = target: T1, Tyrosine-protein kinase Lck (Homo sapiens, UniProt P06239)
# Description: Inhibition of p56 Lck tyrosine kinase at 5 uM ATP
# Jurkat [2] = test: Inhibition of MLR stimulated IL-2 production in Jurkat cells; type: functional, cell-based; conditions: Homo sapiens
# Jurkat [3] = test: Inhibition of anti-CD3 stimulated IL-2 production by Jurkat cells; type: functional, cell-based; conditions: Homo sapiens
# [4] = target: T1, Tyrosine-protein kinase Lck; remark: listed apart in the source
# Description: Inhibition of p56 Lck tyrosine kinase catalytic domain at 5 uM ATP
# [5] = target: T2, Tyrosine-protein kinase ZAP-70 (Homo sapiens, UniProt P43403); test: Inhibition of Zap 70
# T2 sequence (P43403 whole entry): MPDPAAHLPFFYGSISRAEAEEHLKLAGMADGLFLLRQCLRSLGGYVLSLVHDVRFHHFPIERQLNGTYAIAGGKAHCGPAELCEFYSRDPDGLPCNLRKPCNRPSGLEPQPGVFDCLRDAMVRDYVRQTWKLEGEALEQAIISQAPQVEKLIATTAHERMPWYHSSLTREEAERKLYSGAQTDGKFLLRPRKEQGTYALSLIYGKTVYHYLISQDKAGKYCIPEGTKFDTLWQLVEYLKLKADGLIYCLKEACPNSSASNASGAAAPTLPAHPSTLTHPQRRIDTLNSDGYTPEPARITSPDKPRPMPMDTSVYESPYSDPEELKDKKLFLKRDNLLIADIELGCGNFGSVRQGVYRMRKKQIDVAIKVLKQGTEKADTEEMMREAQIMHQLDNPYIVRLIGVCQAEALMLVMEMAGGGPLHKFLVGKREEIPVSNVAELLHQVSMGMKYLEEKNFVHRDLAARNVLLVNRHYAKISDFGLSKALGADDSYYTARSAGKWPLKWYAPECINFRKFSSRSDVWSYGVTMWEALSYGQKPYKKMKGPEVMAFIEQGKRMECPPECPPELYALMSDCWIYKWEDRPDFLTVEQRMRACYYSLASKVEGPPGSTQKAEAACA
# [6] = target: Cyclin-dependent kinase 1/cyclin B (Homo sapiens, UniProt P06493); test: Inhibition of CDC2/CyB; type: protein-complex assay
# [7] = target: Proto-oncogene tyrosine-protein kinase Src (Homo sapiens, UniProt P12931)
# Description: Inhibition of src at 5 mM ATP
# Jurkat [8] = test: Inhibition of PMA stimulated IL-2 production in Jurkat cells; type: functional, cell-based; conditions: Homo sapiens
# [9] = target: T1, Tyrosine-protein kinase Lck; remark: listed apart in the source
# Description: Inhibition of p56 Lck tyrosine kinase catalytic domain at 1 mM ATP
# [10] = target: T1, Tyrosine-protein kinase Lck; remark: listed apart in the source
# Description: Inhibition of p56 Lck tyrosine kinase at 1 mM ATP
# Protein kinase C (PKC) = test: Inhibition of PKC; type: protein assay
# [11] = target: Vascular endothelial growth factor receptor 2 (Homo sapiens, UniProt P35968)
# Description: Inhibition of Vascular endothelial growth factor receptor 2 at 5 uM ATP
# Angiopoietin-1 receptor = Angiopoietin-1 receptor (Homo sapiens, UniProt Q02763)
# Angiopoietin-1 receptor, sequence (Q02763 whole entry): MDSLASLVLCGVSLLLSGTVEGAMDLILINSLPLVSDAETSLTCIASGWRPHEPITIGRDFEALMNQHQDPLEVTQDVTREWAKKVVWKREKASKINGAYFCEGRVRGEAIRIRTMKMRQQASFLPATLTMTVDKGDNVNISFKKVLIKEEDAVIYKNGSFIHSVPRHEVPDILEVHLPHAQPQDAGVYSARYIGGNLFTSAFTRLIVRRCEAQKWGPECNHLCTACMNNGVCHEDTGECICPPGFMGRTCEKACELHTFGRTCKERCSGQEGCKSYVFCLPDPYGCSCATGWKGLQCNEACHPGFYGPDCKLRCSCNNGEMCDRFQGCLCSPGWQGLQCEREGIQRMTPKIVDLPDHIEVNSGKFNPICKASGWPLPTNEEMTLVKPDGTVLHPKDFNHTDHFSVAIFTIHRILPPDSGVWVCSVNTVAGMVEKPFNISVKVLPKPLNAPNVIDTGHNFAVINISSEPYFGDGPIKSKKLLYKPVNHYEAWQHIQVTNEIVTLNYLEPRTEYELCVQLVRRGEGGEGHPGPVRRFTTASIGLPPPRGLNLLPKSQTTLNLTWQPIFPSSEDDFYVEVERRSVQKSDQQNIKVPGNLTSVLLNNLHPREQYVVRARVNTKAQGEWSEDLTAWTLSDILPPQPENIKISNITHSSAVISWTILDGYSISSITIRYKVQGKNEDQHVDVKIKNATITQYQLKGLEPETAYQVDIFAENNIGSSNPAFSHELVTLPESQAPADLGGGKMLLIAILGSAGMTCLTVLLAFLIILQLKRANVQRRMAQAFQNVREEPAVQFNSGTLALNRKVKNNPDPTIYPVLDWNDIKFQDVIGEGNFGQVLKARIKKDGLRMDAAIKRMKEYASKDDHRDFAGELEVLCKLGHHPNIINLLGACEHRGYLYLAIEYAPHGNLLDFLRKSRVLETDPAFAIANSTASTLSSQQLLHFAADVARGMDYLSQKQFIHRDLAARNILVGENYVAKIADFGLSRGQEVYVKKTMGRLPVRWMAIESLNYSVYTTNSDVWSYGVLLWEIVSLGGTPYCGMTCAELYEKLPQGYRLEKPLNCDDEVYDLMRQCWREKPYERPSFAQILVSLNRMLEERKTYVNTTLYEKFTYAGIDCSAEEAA
# Description: Inhibition of tie-2 at 5 uM ATP
# T1 sequence (P06239 whole entry): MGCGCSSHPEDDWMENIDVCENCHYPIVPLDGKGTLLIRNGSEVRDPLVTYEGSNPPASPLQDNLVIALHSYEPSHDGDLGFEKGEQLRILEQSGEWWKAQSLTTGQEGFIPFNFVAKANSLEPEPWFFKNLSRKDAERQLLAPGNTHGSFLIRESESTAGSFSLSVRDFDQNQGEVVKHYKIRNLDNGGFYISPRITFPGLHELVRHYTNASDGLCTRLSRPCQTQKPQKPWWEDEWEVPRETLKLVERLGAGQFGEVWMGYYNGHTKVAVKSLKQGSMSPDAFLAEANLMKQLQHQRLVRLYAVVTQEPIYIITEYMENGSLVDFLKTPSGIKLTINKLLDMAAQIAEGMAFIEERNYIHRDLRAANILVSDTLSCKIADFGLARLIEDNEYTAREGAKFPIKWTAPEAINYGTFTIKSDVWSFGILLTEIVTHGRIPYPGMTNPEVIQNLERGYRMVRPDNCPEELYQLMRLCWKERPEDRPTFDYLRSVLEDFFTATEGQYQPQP
# Proto-oncogene tyrosine-protein kinase Src, sequence (P12931 2-536 limits assumed): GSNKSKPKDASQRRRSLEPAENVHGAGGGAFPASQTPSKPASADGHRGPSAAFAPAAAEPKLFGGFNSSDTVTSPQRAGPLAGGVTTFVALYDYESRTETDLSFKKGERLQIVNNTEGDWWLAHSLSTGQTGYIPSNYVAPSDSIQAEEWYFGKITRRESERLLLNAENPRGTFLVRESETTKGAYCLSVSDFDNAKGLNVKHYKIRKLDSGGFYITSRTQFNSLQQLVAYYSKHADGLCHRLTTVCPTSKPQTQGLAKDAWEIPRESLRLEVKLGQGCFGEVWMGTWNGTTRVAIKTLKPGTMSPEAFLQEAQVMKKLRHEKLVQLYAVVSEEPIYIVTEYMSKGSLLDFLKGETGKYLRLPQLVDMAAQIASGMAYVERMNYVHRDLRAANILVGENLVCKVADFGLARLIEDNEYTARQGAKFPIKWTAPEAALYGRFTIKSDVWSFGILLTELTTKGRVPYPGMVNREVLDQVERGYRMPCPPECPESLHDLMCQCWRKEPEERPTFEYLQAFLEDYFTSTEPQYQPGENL
# Vascular endothelial growth factor receptor 2, sequence (P35968 whole entry): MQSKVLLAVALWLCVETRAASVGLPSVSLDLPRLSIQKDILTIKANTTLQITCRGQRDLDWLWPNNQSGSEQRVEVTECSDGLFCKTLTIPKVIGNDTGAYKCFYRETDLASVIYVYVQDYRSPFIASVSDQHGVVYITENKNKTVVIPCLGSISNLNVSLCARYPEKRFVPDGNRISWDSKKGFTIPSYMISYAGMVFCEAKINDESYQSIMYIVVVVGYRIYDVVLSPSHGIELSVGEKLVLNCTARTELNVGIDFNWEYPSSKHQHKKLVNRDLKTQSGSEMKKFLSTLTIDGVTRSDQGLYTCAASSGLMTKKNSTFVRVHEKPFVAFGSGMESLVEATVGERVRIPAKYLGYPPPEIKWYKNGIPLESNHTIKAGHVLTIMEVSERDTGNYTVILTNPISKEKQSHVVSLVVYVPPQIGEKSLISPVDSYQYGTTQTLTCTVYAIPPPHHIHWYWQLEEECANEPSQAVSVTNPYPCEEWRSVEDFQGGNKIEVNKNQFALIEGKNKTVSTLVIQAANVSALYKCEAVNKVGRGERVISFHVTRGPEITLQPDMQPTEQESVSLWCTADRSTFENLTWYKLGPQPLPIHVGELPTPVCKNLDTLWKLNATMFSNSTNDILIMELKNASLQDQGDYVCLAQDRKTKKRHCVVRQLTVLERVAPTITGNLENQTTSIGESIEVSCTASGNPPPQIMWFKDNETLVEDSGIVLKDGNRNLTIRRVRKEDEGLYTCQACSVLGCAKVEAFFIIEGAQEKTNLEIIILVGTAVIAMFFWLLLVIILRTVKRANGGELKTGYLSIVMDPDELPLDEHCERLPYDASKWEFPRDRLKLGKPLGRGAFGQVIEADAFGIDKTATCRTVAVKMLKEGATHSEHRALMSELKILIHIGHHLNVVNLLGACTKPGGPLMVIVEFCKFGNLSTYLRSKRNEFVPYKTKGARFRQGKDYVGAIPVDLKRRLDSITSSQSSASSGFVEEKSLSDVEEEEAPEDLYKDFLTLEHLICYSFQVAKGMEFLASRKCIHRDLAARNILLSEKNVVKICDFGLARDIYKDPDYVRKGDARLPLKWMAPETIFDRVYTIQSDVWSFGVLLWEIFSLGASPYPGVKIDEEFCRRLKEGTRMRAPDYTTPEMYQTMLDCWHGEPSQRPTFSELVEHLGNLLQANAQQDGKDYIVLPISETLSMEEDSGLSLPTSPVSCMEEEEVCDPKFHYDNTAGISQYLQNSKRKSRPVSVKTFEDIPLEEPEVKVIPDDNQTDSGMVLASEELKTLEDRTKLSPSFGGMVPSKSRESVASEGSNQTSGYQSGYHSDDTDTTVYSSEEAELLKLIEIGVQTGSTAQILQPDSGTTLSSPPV
compound,measurement,setting,value
c1ccc(Oc2ccc(Nc3ncnc4ccccc34)cc2)cc1,IC50,[1],< 0.008 µM
CC(C)(C)n1cc(-c2ccc(Cl)cc2)c2c(N)ncnc21,IC50,[1],0.22 µM
Cc1ccc(-c2nn(C(C)(C)C)c3ncnc(N)c23)cc1,IC50,Jurkat [2],0.4 µM
same,IC50,Jurkat [3],1.2 µM
Nc1ncnc2c1c(-c1ccc(Oc3ccccc3)cc1)cn2C1CCCC1,IC50,[4],0.002 µM
same,IC50,[5],> 50 µM
same,IC50,[6],> 50 µM
same,IC50,[1],< 0.001 µM
same,IC50,[7],0.07 µM
same,IC50,Jurkat [8],1.5 µM
same,IC50,[9],1.07 µM
same,IC50,[10],0.016 µM
same,IC50,Jurkat [3],0.04 µM
same,IC50,Protein kinase C (PKC),> 33 µM
same,IC50,[11],1.57 µM
Nc1ncnc2c1c(-c1ccccc1Oc1ccccc1)cn2C1CCCC1,IC50,[1],0.39 µM
same,IC50,[11],> 50 µM
Nc1ncnc2c1c(-c1ccc(Oc3ccccc3)cc1)cn2C1CCC(O)C1 (stereo unspecified),IC50,Jurkat [2],0.028 µM
same,IC50,[5],> 50 µM
same,IC50,[6],> 50 µM
same,IC50,Angiopoietin-1 receptor,0.0583 µM
same,IC50,[7],0.088 µM
same,IC50,Jurkat [8],3 µM
same,IC50,Protein kinase C (PKC),> 33 µM
same,IC50,[11],0.085 µM
Nc1ncnc2c1c(-c1cccc(Oc3ccccc3)c1)cn2C1CCCC1,IC50,[7],> 1 µM
